From patent US20230181564A1, “Potent Tetrahydroquinolone Eliminates Apicomplexan Parasites” (The University of Chicago, priority 2020, published 2023)
Converted amounts (≈) assume the structure as drawn.

Assays:
[1] = Kinetic/aqueous solubility in PBS pH 7.4; assay type: physicochemical; settings: for PBS Sol pH7.4: solubility in Phosphate Buffered Saline pH 7.4, first value of cell
Procedure: PBS Sol/Toxicity pH7.4 refers to solubility of the compound in Phosphate Buffered Saline (PBS) at pH7.4. […] Parasites were RH-YFP expressing tachyzoites (Tachy) and EGS (Brady) strains. Studies of effects of inhibitors on HFF or on T.gondii tachyzoites were performed with triplicate wells in at least two biological replicate experiments. Studies of effects on bradyzoites were performed at least twice in at least two biological replicate experiments. Compounds with much less inhibition of mammalian than T. gondii cytochrome bc in the saffarine enzyme assay (indicated by **) provide potential to further develop compounds, if unanticipated toxicity occurs from JAG21.
Structure Activity Relationship (SAR) and comparison of effect on T.gondii and HFF enzyme activity. […] The MDCK-MDR1 Permeability Assay was also performed. […] These were measured by Chem Partners.

[2] = Metabolic stability in mouse liver microsomes; assay type: in vitro ADME; settings: predicted half-life in mouse liver microsomes; no unit in table (101 minutes for JAG021)
[3] = system: Human Foreskin Fibroblast (HFF); experiment: Cytotoxicity assay with WST-1 on HFF; assay type: cell-based; settings: WST assay, HFF; second value of cell
Procedure: PBS Sol/Toxicity pH7.4 refers to solubility of the compound in Phosphate Buffered Saline (PBS) at pH7.4. […] Tachy/Brady IC50 was determined in studies in which cultures of parasites in HFF were treated with varying concentrations of the compound and there was 50% inhibition of the replication (number) of parasites. Parasites were RH-YFP expressing tachyzoites (Tachy) and EGS (Brady) strains. Studies of effects of inhibitors on HFF or on T.gondii tachyzoites were performed with triplicate wells in at least two biological replicate experiments. Studies of effects on bradyzoites were performed at least twice in at least two biological replicate experiments. Compounds with much less inhibition of mammalian than T. gondii cytochrome bc in the saffarine enzyme assay (indicated by **) provide potential to further develop compounds, if unanticipated toxicity occurs from JAG21.
Cytotoxicity Assays in parallel with RH Strain T.gondii in vitro studies. Toxicity assays used WST-1 cell proliferation reagent (Roche) as in Fomovska et al. (2012). HFF were grown on a flat, clear-bottomed, black 96-well plate. Confluent HFF were treated with inhibitory compounds at concentrations of 10 μM and 50 μM. Compounds were diluted in IMDM-C, and 20 μL were added to each designated well, with triplicates for each condition. A gradient with 2 fold-decreasing concentrations of DMSO from 10% to 0% in colorless, translucent IMDM-C was used as a control. The plate was incubated for 72 hours at 37° C. 10 μL WST-1 reagent (Roche) were added to each well. Cells were incubated for 30-60 minutes. Absorbance was read using a fluorimeter at 420 nm. A higher degree of color change (and absorbance) indicated mitochondrial activity and cell viability.
Because T. gondii grows inside cells, if a compound were toxic to host HFF then it would make the compound appear to be spuriously effective (Fomovska et al. 2012; Fomovska et al. 2012a), when in actuality only toxicity for the host cell would be measured. Cytotoxicity to HFF was therefore assessed for all compounds at 10 μM. Results of this experiment are in Table 1, toxicity column. A two-way ANOVA and subsequent pairwise comparison found none of the differences in absorbance, compared to the media-DMSO vehicle controls, to be statistically significant (p>0.05). Most of these compounds are not toxic at 10 μM (the limit of solubility) and that cytotoxicity to cells can be attributed to DMSO in the solution, not the compound.

Compound | PBS Sol pH7.4 [1] | Toxicity* (highest concentration tested that does not show toxicity to HFF) [3] | further results
Cc1[nH]c2c(c(=O)c1-c1ccc(Oc3cccc(OC(F)(F)F)c3)cc1)CCCC2 [AS006] | 0.55 μM | – | T1/2 (M) [2]: 25.88
Cc1[nH]c2c(c(=O)c1-c1ccc(Oc3cccc(C(F)(F)F)c3)cc1)CCCC2 [AS012] | 2.19 μM | – | T1/2 (M) [2]: 30.05
Cc1[nH]c2c(c(=O)c1-c1ccc(Oc3ccc(F)c(Cl)c3)cc1)CCCC2 [AS021] | 2 μM | – | T1/2 (M) [2]: 41.09
Cc1[nH]c2c(c(=O)c1-c1ccc(Oc3cc(Cl)cc(Cl)c3)cc1)CCCC2 [AS022] | 6.25 μM | – | T1/2 (M) [2]: 28.62
Cc1[nH]c2c(c(=O)c1-c1ccc(Oc3ccc4c(c3)OCO4)cc1)CCCC2 [AS032] | – | ND/5 μM | –
COc1ccc(Oc2ccc(-c3c(C)[nH]c4c(c3=O)CCCC4)cc2)cc1OC [AS033] | – | ND/5 μM | –
Cc1[nH]c2c(c(=O)c1-c1ccc(Oc3cc(Cl)nc(Cl)c3)cc1)CCCC2 [AS034] | 5.05 μM | – | T1/2 (M) [2]: 24.93
Cc1[nH]c2ccccc2c(=O)c1-c1ccc(Oc2ccc(OC(F)(F)F)cc2)cc1 [ELQ271, reference compound] | 0.15 μM | – | solubility ([1]; amorphous compounds): 0.2 µM (≈ 0.0823 µg/mL)
Cc1cc2[nH]c(C)c(-c3ccc(Oc4ccc(OC(F)(F)F)cc4)cc3)c(=O)n2n1 [JAG006] | – | ND/5 μM | –
CSc1nc2[nH]c(C)c(-c3ccc(Oc4ccc(OC(F)(F)F)cc4)cc3)c(=O)n2n1 [JAG013] | – | ND/5 μM | –
Cc1[nH]c2c(C#N)cnn2c(=O)c1-c1ccc(Oc2ccc(OC(F)(F)F)cc2)cc1 [JAG014] | – | ND/5 μM | –
Cc1[nH]c2cc(-c3ccccc3)nn2c(=O)c1-c1ccc(Oc2ccc(OC(F)(F)F)cc2)cc1 [JAG015] | – | ND/5 μM | –
Cc1[nH]c2c(c(=O)c1-c1ccc(Oc3ccc(C(=O)O)cc3)nc1)CCCC2 [JAG022] | – | ND/5 μM | –
Cc1c(-c2ccc(Oc3ccc(OC(F)(F)F)cc3)cc2)c(=O)c2c(n1C)CCCC2 [JAG023] | – | ND/5 μM | –
Cc1[nH]c2c(c(=O)c1-c1ccc(Oc3ccc(F)cc3)cc1)CCCC2 [JAG058] | 2.38 μM | – | T1/2 (M) [2]: 39.17
Cc1[nH]c2c(c(=O)c1-c1ccc(Oc3cccc(Cl)c3)cc1)CCCC2 [JAG062] | 0.33 μM | – | T1/2 (M) [2]: 12.42
Cc1[nH]c2c(c(=O)c1-c1ccc(Oc3ccc(C(F)(F)F)cc3)cc1)CCCC2 [JAG063] | 0.45 μM | – | T1/2 (M) [2]: 126.96
Cc1[nH]c2c(c(=O)c1-c1ccc(Oc3cccc(F)c3)cc1)CCCC2 [JAG069] | 0.5 μM | – | T1/2 (M) [2]: 17.38
Cc1c(-c2ccc(Oc3ccc(Cl)cc3)cc2)c(=O)c2c(n1C)CCCC2 [JAG077] | – | ND/5 μM | –
Cc1[nH]c2c(c(=O)c1-c1ccc(Oc3ccc(Cl)c(Cl)c3)cc1)CCCC2 [JAG084] | 0.68 μM | – | T1/2 (M) [2]: 63.1
O=C(O)c1[nH]c2c(c(=O)c1-c1ccc(Oc3ccc(OC(F)(F)F)cc3)cc1)CCCC2 [JAG091] | – | ND/5 μM | –
Cc1[nH]c2c(c(=O)c1-c1ccc(Oc3ccc(OC(F)(F)F)cc3)nc1)CCCC2 [JAG092] | – | ND/5 μM | –

Compound | PBS Sol pH7.4 [1] | Toxicity* (highest concentration tested that does not show toxicity to HFF) [3] | further results
Cc1[nH]c2c(c(=O)c1-c1ccc(O)cc1)CCCC2 [JAG094] | – | ND/5 μM | –
O=c1[nH]c2c(c(=O)n1-c1ccc(Oc3ccccc3)cc1)CCCC2 [JAG095] | – | ND/5 μM | –
Cc1[nH]c2c(c(=O)c1-c1ccc(Oc3ccc(OC(F)(F)F)cc3)cc1)CC(C(F)(F)F)CC2 (stereo not shown) [JAG100] | – | ND/5 μM | –
Cc1[nH]c2c(c(=O)c1-c1ccc(Oc3ccc(OC(F)(F)F)cc3)cc1)CC(C)CC2 (stereo not shown) [JAG106] | – | ND/5 μM | –
Cc1[nH]c2c(c(=O)c1-c1ccc(Oc3ccc(OC(F)(F)F)cc3)cc1)CCC(C)C2 (stereo not shown) [JAG107] | 0.03 μM | – | T1/2 (M) [2]: 111.93
CCC1CCc2c([nH]c(C)c(-c3ccc(Oc4ccc(OC(F)(F)F)cc4)cc3)c2=O)C1 (stereo not shown) [JAG121] | 0.16 μM | – | T1/2 (M) [2]: 63.28
Cc1[nH]c2cnccc2c(=O)c1-c1ccc(Oc2ccc(OC(F)(F)F)cc2)cc1 [JAG129] | 5.12 μM | – | –
Cc1[nH]c2c(c(=O)c1-c1ccc(Oc3ccc(OC(F)(F)F)cc3)cc1)CCC(C(F)(F)F)C2 (stereo not shown) [JAG162] | 0.02 μM | – | T1/2 (M) [2]: 144.43
CCOC(=O)Oc1c2c(nc(C)c1-c1ccc(Oc3ccc(OC(F)(F)F)cc3)cc1)CCCC2 [JAG171] | – | ND/5 μM | –
CCC1CCc2c([nH]c(CO)c(-c3ccc(Oc4ccc(OC(F)(F)F)cc4)cc3)c2=O)C1 (stereo not shown) [JAG174] | – | ND/5 μM | –
O=c1c2c([nH]c(CO)c1-c1ccc(Oc3ccc(OC(F)(F)F)cc3)cc1)CC(C(F)(F)F)CC2 (stereo not shown) [JAG187] | – | ND/5 μM | –
CC1CCc2c([nH]c(CO)c(-c3ccc(Oc4ccc(OC(F)(F)F)cc4)cc3)c2=O)C1 (stereo not shown) [JAG193] | – | ND/5 μM | –
Cc1[nH]c2c(c(=O)c1-c1cccc(Oc3cc(Cl)cc(Cl)c3)c1)CCCC2 [JAG199] | – | ND/5 μM | –
Cc1[nH]c2c(c(=O)c1-c1cccc(Oc3ccc(F)c(Cl)c3)c1)CCCC2 [JAG200] | – | ND/5 μM | –
Cc1[nH]c2c(c(=O)c1-c1ccc(OCc3ccccc3)cc1)CCCC2 [JAG204] | – | ND/5 μM | –
Cc1[nH]c2c(c(=O)c1-c1ccc(Oc3cc(Cl)cc(Cl)c3)cc1)CCC(C)C2 (stereo not shown) [JAG208] | – | ND/5 μM | –
Cc1[nH]c2ccccc2c(=O)c1-c1ccc(Oc2ccccc2)cc1 [MJM129] | – | ND/5 μM | –
Cc1[nH]c2ncnn2c(=O)c1-c1ccc(Oc2ccc(OC(F)(F)F)cc2)cc1 [MJM136] | – | ND/5 μM | –
Cc1[nH]c2ccnn2c(=O)c1-c1ccc(Oc2ccc(OC(F)(F)F)cc2)cc1 [MJM141] | 0.94 μM | – | –
Cc1[nH]c2c(c(=O)c1-c1cccc(Oc3ccc(OC(F)(F)F)cc3)c1)CCCC2 [NP032] | – | ND/5 μM | –
Cc1[nH]c2c(c(=O)c1-c1cccc(Oc3ccc(Cl)cc3)c1)CCCC2 [NP034] | – | ND/5 μM | –
Cc1[nH]c2c(c(=O)c1-c1cccc(Oc3ccc(C(F)(F)F)cc3)c1)CCCC2 [NP035] | – | ND/5 μM | –
